Results reported in patent US7504426B2, “Heterocyclic compounds” (Janssen Pharmaceutica N.V., priority 2003, dated 2009).

Target: human histamine H4 receptor (Homo sapiens, UniProt Q9H3N8)
Assay: biochemical

Row | Compound | Ki
1 | CN1CCN(C(=O)c2nc3ccccc3[nH]2)CC1 [Example 1, (1H-Benzoimidazol-2-yl)-(4-methyl-piperazin-1-yl)-methanone] | 32 nM
2 | CCN1CCN(C(=O)c2nc3ccccc3[nH]2)CC1 [Example 2, (1H-Benzoimidazol-2-yl)-(4-ethyl-piperazin-1-yl)-methanone] | 490 nM
3 | CC1CN(C(=O)c2nc3ccccc3[nH]2)CCN1 (stereo not shown) [Example 3, (1H-Benzoimidazol-2-yl)-(3-methyl-piperazin-1-yl)-methanone] | 331 nM
4 | CN1CCCN(C(=O)c2nc3ccccc3[nH]2)CC1 [Example 4, (1H-Benzoimidazol-2-yl)-(4-methyl-[1,4]diazepan-1-yl)-methanone] | 1400 nM
5 | CN1C2CCC1CC(NC(=O)c1nc3ccccc3[nH]1)C2 (stereo not shown) [Example 5, 1H-Benzoimidazole-2-carboxylic acid (8-methyl-8-aza-bicyclo[3.2.1]oct-3-yl)-amide] | 89 nM
6 | CC1CN(C(=O)c2nc3cc(Cl)ccc3[nH]2)CCN1 (stereo not shown) [Example 8, (5-Chloro-1H-benzoimidazol-2-yl)-(3-methyl-piperazin-1-yl)-methanone] | 300 nM
7 | CN1C2CCC1CC(NC(=O)c1nc3cc(F)c(F)cc3[nH]1)C2 (stereo not shown) [Example 13, 5,6-Difluoro-1H-benzoimidazole-2-carboxylic acid (8-methyl-8-aza-bicyclo[3.2.1]oct-3-yl)-amide] | 380 nM
8 | CN1C2CCC1CC(NC(=O)c1nc3cc(F)c(Cl)cc3[nH]1)C2 (stereo not shown) [Example 17, 6-Chloro-5-fluoro-1H-benzoimidazole-2-carboxylic acid (8-methyl-8-aza-bicyclo[3.2.1]oct-3-yl)-amide] | 535 nM

More lines, now with the values ahead:

Row | Ki | Compound
9 | 620 nM | CCN1CCN(C(=O)c2nc3cc(F)c(F)cc3[nH]2)CC1 [Example 10, (5,6-Difluoro-1H-benzoimidazol-2-yl)-(4-ethyl-piperazin-1-yl)-methanone]
10 | 355 nM | CC1CN(C(=O)c2nc3cc(F)c(F)cc3[nH]2)CCN1 (stereo not shown) [Example 11, (5,6-Difluoro-1H-benzoimidazol-2-yl)-(3-methyl-piperazin-1-yl)-methanone]
11 | 807 nM | CN1CCCN(C(=O)c2nc3cc(F)c(F)cc3[nH]2)CC1 [Example 12, (5,6-Difluoro-1H-benzoimidazol-2-yl)-(4-methyl-[1,4]diazepan-1-yl)-methanone]
12 | 53 nM | CN1CCN(C(=O)c2nc3cc(F)c(Cl)cc3[nH]2)CC1 [Example 14, (6-Chloro-5-fluoro-1H-benzoimidazol-2-yl)-(4-methyl-piperazin-1-yl)-methanone]
13 | 216 nM | O=C(c1nc2cc(F)c(Cl)cc2[nH]1)N1CCNCC1 [Example 15, (6-Chloro-5-fluoro-1H-benzoimidazol-2-yl)-piperazin-1-yl-methanone]
14 | 1300 nM | CN1CCCN(C(=O)c2nc3cc(F)c(Cl)cc3[nH]2)CC1 [Example 16, (6-Chloro-5-fluoro-1H-benzoimidazol-2-yl)-(4-methyl-[1,4]diazepan-1-yl)-methanone]
15 | 226 nM | Cc1cc2nc(C(=O)N3CCN(C)CC3)[nH]c2cc1Cl [Example 18, (5-Chloro-6-methyl-1H-benzoimidazol-2-yl)-(4-methyl-piperazin-1-yl)-methanone]
16 | 1000 nM | Cc1cc2nc(C(=O)N3CCNCC3)[nH]c2cc1Cl [Example 19, (5-Chloro-6-methyl-1H-benzoimidazol-2-yl)-piperazin-1-yl-methanone]
17 | 156 nM | Cc1cccc2[nH]c(C(=O)N3CCNC(C)C3)nc12 (stereo not shown) [Example 20, (4-Methyl-1H-benzoimidazol-2-yl)-(3-methyl-piperazin-1-yl)-methanone]
18 | 468 nM | CCN1CCN(C(=O)c2nc3c(C)cccc3[nH]2)CC1 [Example 21, (4-Ethyl-piperazin-1-yl)-(4-methyl-1H-benzoimidazol-2-yl)-methanone]
19 | 31 nM | Cc1cccc2[nH]c(C(=O)N3CCN(C)CC3)nc12 [Example 22, (4-Methyl-1H-benzoimidazol-2-yl)-(4-methyl-piperazin-1-yl)-methanone]
